In PubChem BioAssay (NCI):
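Abbreviation: GI50, concentration required for 50% inhibition of growth. TGI denotes the concentration required for complete inhibition of growth.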

Legend:
Assay in all cases: growth of human tumour cells (NCI), 384-well format
HCT-15 colon = system: HCT-15 colon
MOLT-4 leukemia = system: MOLT-4 leukemia
HOP-62 NSCLC = system: HOP-62 NSCLC
NCI-H226 lung = system: NCI-H226 lung
MDA-MB-468 breast = system: MDA-MB-468 breast
SK-MEL-5 melanoma = system: SK-MEL-5 melanoma
HT29 colon = system: HT29 colon
UACC-257 melanoma = system: UACC-257 melanoma
NCI-H23 lung = system: NCI-H23 lung
SF-295 CNS = system: SF-295 CNS
T-47D breast = system: T-47D breast
MALME-3M melanoma = system: MALME-3M melanoma
RPMI-8226 leukemia = system: RPMI-8226 leukemia
SNB-75 CNS = system: SNB-75 CNS
SF-268 CNS = system: SF-268 CNS
LOX IMVI melanoma = system: LOX IMVI melanoma
PC-3 prostate = system: PC-3 prostate
TK-10 renal = system: TK-10 renal
HCT-116 colon = system: HCT-116 colon
UACC-62 melanoma = system: UACC-62 melanoma
CAKI-1 renal = system: CAKI-1 renal
MDA-MB-435 melanoma = system: MDA-MB-435 melanoma
M14 melanoma = system: M14 melanoma
OVCAR-4 ovarian = system: OVCAR-4 ovarian
IGROV1 ovarian = system: IGROV1 ovarian
NCI-H322M lung = system: NCI-H322M lung
KM12 colon = system: KM12 colon
CCRF-CEM leukemia = system: CCRF-CEM leukemia
SNB-19 CNS = system: SNB-19 CNS
MCF7 breast = system: MCF7 breast
SW-620 colon = system: SW-620 colon
RXF 393 renal = system: RXF 393 renal
NCI-H460 NSCLC = system: NCI-H460 NSCLC
ACHN renal = system: ACHN renal
BT-549 breast = system: BT-549 breast
UO-31 renal = system: UO-31 renal
A549 NSCLC = system: A549 NSCLC
NCI-H522 lung = system: NCI-H522 lung
COLO 205 colon = system: COLO 205 colon
HS 578T breast = system: HS 578T breast
OVCAR-5 ovarian = system: OVCAR-5 ovarian
OVCAR-3 ovarian = system: OVCAR-3 ovarian
U251 glioblastoma = system: U251 glioblastoma
OVCAR-8 ovarian = system: OVCAR-8 ovarian
K-562 leukemia = system: K-562 leukemia
HL-60(TB) leukemia = system: HL-60(TB) leukemia
MDA-MB-231 breast = system: MDA-MB-231 breast
A498 renal = system: A498 renal
SK-OV-3 ovarian = system: SK-OV-3 ovarian
786-0 renal = system: 786-0 renal
HOP-92 NSCLC = system: HOP-92 NSCLC
SN12C renal = system: SN12C renal
EKVX NSCLC = system: EKVX NSCLC
SK-MEL-2 melanoma = system: SK-MEL-2 melanoma
SK-MEL-28 melanoma = system: SK-MEL-28 melanoma
NCI/ADR-RES ovarian = system: NCI/ADR-RES ovarian
HCC-2998 colon = system: HCC-2998 colon
SF-539 CNS = system: SF-539 CNS
DU-145 prostate = system: DU-145 prostate

For `Cc1ccccc1C(C(=O)NC1CCCCC1)N(C(=O)CNc1ncccc1F)c1cccc(F)c1` (stereo not drawn), the GI50 (HCT-15 colon) was > 100 µM, the TGI (HCT-15 colon) was > 100 µM and the GI50 (MOLT-4 leukemia) was > 100 µM. For the same compound, the TGI (MOLT-4 leukemia) was > 100 µM, the GI50 (HOP-62 NSCLC) was > 100 µM and the TGI (HOP-62 NSCLC) was > 100 µM. For the same compound, the GI50 (NCI-H226 lung) was > 100 µM, the TGI (NCI-H226 lung) was > 100 µM and the GI50 (MDA-MB-468 breast) was > 100 µM. The TGI (MDA-MB-468 breast) was > 100 µM, the GI50 (SK-MEL-5 melanoma) was > 100 µM and the TGI (SK-MEL-5 melanoma) was > 100 µM. For the same compound, the GI50 (HT29 colon) was > 100 µM, the TGI (HT29 colon) was > 100 µM and the GI50 (UACC-257 melanoma) was > 100 µM. The TGI (UACC-257 melanoma) was > 100 µM, the GI50 (NCI-H23 lung) was > 100 µM and the TGI (NCI-H23 lung) was > 100 µM. For the same compound, the GI50 (SF-295 CNS) was > 100 µM, the TGI (SF-295 CNS) was > 100 µM and the GI50 (T-47D breast) was > 100 µM. The TGI (T-47D breast) was > 100 µM, the GI50 (MALME-3M melanoma) was > 100 µM and the TGI (MALME-3M melanoma) was > 100 µM. For the same compound, the GI50 (RPMI-8226 leukemia) was > 100 µM, the TGI (RPMI-8226 leukemia) was > 100 µM and the GI50 (SNB-75 CNS) was > 100 µM. The TGI (SNB-75 CNS) was > 100 µM, the GI50 (SF-268 CNS) was > 100 µM and the TGI (SF-268 CNS) was > 100 µM. For the same compound, the GI50 (LOX IMVI melanoma) was > 100 µM, the TGI (LOX IMVI melanoma) was > 100 µM and the GI50 (PC-3 prostate) was > 100 µM. The TGI (PC-3 prostate) was > 100 µM, the GI50 (TK-10 renal) was > 100 µM and the TGI (TK-10 renal) was > 100 µM. For the same compound, the GI50 (HCT-116 colon) was > 100 µM, the TGI (HCT-116 colon) was > 100 µM and the GI50 (UACC-62 melanoma) was > 100 µM. The TGI (UACC-62 melanoma) was > 100 µM, the GI50 (CAKI-1 renal) was > 100 µM and the TGI (CAKI-1 renal) was > 100 µM. For the same compound, the GI50 (MDA-MB-435 melanoma) was > 100 µM, the TGI (MDA-MB-435 melanoma) was > 100 µM and the GI50 (M14 melanoma) was > 100 µM. For the same compound, the TGI (M14 melanoma) was > 100 µM, the GI50 (OVCAR-4 ovarian) was > 100 µM and the TGI (OVCAR-4 ovarian) was > 100 µM. The GI50 (IGROV1 ovarian) was > 100 µM, the TGI (IGROV1 ovarian) was > 100 µM and the GI50 (NCI-H322M lung) was > 100 µM. For the same compound, the TGI (NCI-H322M lung) was > 100 µM, the GI50 (KM12 colon) was > 100 µM and the TGI (KM12 colon) was > 100 µM. The GI50 (CCRF-CEM leukemia) was > 100 µM, the TGI (CCRF-CEM leukemia) was > 100 µM and the GI50 (SNB-19 CNS) was > 100 µM. For the same compound, the TGI (SNB-19 CNS) was > 100 µM, the GI50 (MCF7 breast) was > 100 µM and the TGI (MCF7 breast) was > 100 µM. The GI50 (SW-620 colon) was > 100 µM, the TGI (SW-620 colon) was > 100 µM and the GI50 (RXF 393 renal) was > 100 µM. The TGI (RXF 393 renal) was > 100 µM, the GI50 (NCI-H460 NSCLC) was > 100 µM and the TGI (NCI-H460 NSCLC) was > 100 µM. For the same compound, the GI50 (ACHN renal) was > 100 µM, the TGI (ACHN renal) was > 100 µM and the GI50 (BT-549 breast) was > 100 µM. The TGI (BT-549 breast) was > 100 µM, the GI50 (UO-31 renal) was > 100 µM and the TGI (UO-31 renal) was > 100 µM. For the same compound, the GI50 (A549 NSCLC) was > 100 µM, the TGI (A549 NSCLC) was > 100 µM and the GI50 (NCI-H522 lung) was > 100 µM. For the same compound, the TGI (NCI-H522 lung) was > 100 µM, the GI50 (COLO 205 colon) was > 100 µM and the TGI (COLO 205 colon) was > 100 µM. The GI50 (HS 578T breast) was > 100 µM, the TGI (HS 578T breast) was > 100 µM and the GI50 (OVCAR-5 ovarian) was > 100 µM. For the same compound, the TGI (OVCAR-5 ovarian) was > 100 µM, the GI50 (OVCAR-3 ovarian) was > 100 µM and the TGI (OVCAR-3 ovarian) was > 100 µM. For the same compound, the GI50 (U251 glioblastoma) was > 100 µM, the TGI (U251 glioblastoma) was > 100 µM and the GI50 (OVCAR-8 ovarian) was > 100 µM. For the same compound, the TGI (OVCAR-8 ovarian) was > 100 µM, the GI50 (K-562 leukemia) was > 100 µM and the TGI (K-562 leukemia) was > 100 µM. The GI50 (HL-60(TB) leukemia) was > 100 µM, the TGI (HL-60(TB) leukemia) was > 100 µM and the GI50 (MDA-MB-231 breast) was > 100 µM. The TGI (MDA-MB-231 breast) was > 100 µM, the GI50 (A498 renal) was > 100 µM and the TGI (A498 renal) was > 100 µM. The GI50 (SK-OV-3 ovarian) was > 100 µM, the TGI (SK-OV-3 ovarian) was > 100 µM and the GI50 ([…]-0 renal) was > 100 µM. For the same compound, the TGI (786-0 renal) was > 100 µM, the GI50 (HOP-92 NSCLC) was > 100 µM and the TGI (HOP-92 NSCLC) was > 100 µM. The GI50 (SN12C renal) was > 100 µM, the TGI (SN12C renal) was > 100 µM and the GI50 (EKVX NSCLC) was > 100 µM. For the same compound, the TGI (EKVX NSCLC) was > 100 µM, the GI50 (SK-MEL-2 melanoma) was > 100 µM and the TGI (SK-MEL-2 melanoma) was > 100 µM. For the same compound, the GI50 (SK-MEL-28 melanoma) was > 100 µM, the TGI (SK-MEL-28 melanoma) was > 100 µM and the GI50 (NCI/ADR-RES ovarian) was > 100 µM. The TGI (NCI/ADR-RES ovarian) was > 100 µM, the GI50 (HCC-2998 colon) was > 100 µM and the TGI (HCC-2998 colon) was > 100 µM. For the same compound, the GI50 (SF-539 CNS) was > 100 µM, the TGI (SF-539 CNS) was > 100 µM and the GI50 (DU-145 prostate) was > 100 µM. For the same compound, the TGI (DU-145 prostate) was > 100 µM.
